Results on nine compounds are retold here after patent US3956287A, “7-[(2-Oxo-1-pyridinyl)acylamino]cephalosporin derivatives” (Richardson-Merrell Inc., priority 1973, dated 1976).

The structures appear in SMILES notation. In brackets after ≈: the same amount, converted by molar mass. Structures can show the parent of a compound that is named as a salt. Where two headings read alike, the source gives them in different places.

A short description of data set [1]: Acid Resistance. It is filed as physicochemical.
Data set [2] relates to Staphylococcus aureus. Description: in vitro antibacterial activity, minimal inhibiting concentration, Staphylococcus aureus. It is filed as cell-based. The following applies: read-out: Minimal inhibiting concentration, Staphylococcus aureus. The protocol: (§1) Specific nutrient agar plates are completely innoculated with the various test organisms. Filter paper discs are placed on the surface of the agar and wetted with 0.1 ml of a solution containing 10, 100 and 1,000 micrograms of the test compound. Zones of inhibition of microbial growth are used to indicate the antibacterial activity of the test compound against the various test organisms employed.
(§2) The following table summarizes the in vitro activity in terms of a concentration required to inhibit the growth of various typical bacteria for the following representative compounds: 6-[2-(2-oxo-1-pyridinyl)acetylamino]penicillanic acid, sodium salt (1), 7-[2-(2-oxo-1-pyridinyl)acetylamino]desacetoxycephalosporanic acid, sodium salt (2), 6-[2-(6-methyl-2-oxo-1-pyridinyl)acetylamino]pencillanic acid (3), 6-[2-(2-oxo-1-pyridinyl)-2-methylacetylamino]penicillanic acid (4), 6-[2-(5-chloro-2-oxo-1-pyridinyl)acetylamino]penicillanic acid (5), 6-[2-(5-nitro-2-oxo-1-pyridinyl)acetylamino]penicillanic acid (6), 6-[ 2-(5-amino-2-oxo-1-pyridinyl)acetylamino]penicillanic acid (7), 6-[2-(3-methoxy-2-oxo-1-pyridinyl)acetylamino]penicillanic acid (8), and 7-[2-(2-oxo-1-pyridinyl)acetylamino]cephalosporanic acid (9).

In data set [3] the test system is (Penicillinase Producing) Staphylococcus aureus. Briefly: in vitro antibacterial activity, minimal inhibiting concentration, penicillinase producing Staphylococcus aureus. It is filed as cell-based. The following applies: read-out: Minimal inhibiting concentration, (Penicillinase Producing) Staphylococcus aureus. The protocol: as §1, §2
The test system of data set [4] is Streptococcus pyogenes. Briefly: in vitro antibacterial activity, minimal inhibiting concentration, Streptococcus pyogenes. The following applies: read-out: Minimal inhibiting concentration, Streptococcus pyogenes. It is filed as cell-based. The protocol: as §1, §2
Data set [5] has as its system Salmonella schottmuelleri. Briefly: in vitro antibacterial activity, minimal inhibiting concentration, Salmonella schottmuelleri. The class given is cell-based. As to conditions: read-out: Minimal inhibiting concentration, Salmonella schottmuelleri. As for the experimental part:
as §1, §2

[6] abbreviates: in vitro, filter paper discs on nutrient agar, 0.1 ml of solution containing 10, 100 and 1,000 micrograms.
Where [7] appears, read: penicillinase producing strain, in vitro, filter paper discs on nutrient agar, 0.1 ml of solution containing 10, 100 and 1,000 micrograms.

`CC(=O)OCC1=C(C(=O)O)N2C(=O)C(NC(=O)Cn3ccccc3=O)C2SC1` (centres unmarked) [Compound 9, 7-[2-(2-oxo-1-pyridinyl)acetylamino]cephalosporanic acid]: the “Acid Resistance” value in data set [1] is “Yes”. The MIC came out at 10 µg/mL (≈ 24.5 µM) in data set [2] (setting [6]), 1000 µg/mL (≈ 2450 µM) in data set [3] (setting [7]), 10 µg/mL (≈ 24.5 µM) in data set [4] (setting [6]) and 100 µg/mL (≈ 245 µM) in data set [5] (setting [6]).
With `CC1(C)S[C@@H]2C(NC(=O)Cn3cc(Cl)ccc3=O)C(=O)N2[C@H]1C(=O)O` (some centres unmarked) [Compound 5, 6-[2-(5-chloro-2-oxo-1-pyridinyl)acetylamino]penicillanic acid], the “Acid Resistance” value in data set [1] was “Yes”. Besides, the MIC was 10 µg/mL (≈ 25.9 µM) in data set [2] (setting [6]), > 1000 µg/mL in data set [3] (setting [7]), 1000 µg/mL (≈ 2590 µM) in data set [4] (setting [6]) and 1000 µg/mL (≈ 2590 µM) in data set [5] (setting [6]).
`CC1(C)S[C@@H]2C(NC(=O)Cn3cc(N)ccc3=O)C(=O)N2[C@H]1C(=O)O` (some centres unmarked) [Compound 7, 6-[2-(5-amino-2-oxo-1-pyridinyl)acetylamino]penicillanic acid]: the “Acid Resistance” value in data set [1] is recorded as “Yes”. In addition, the MIC is 10 µg/mL (≈ 27.3 µM) in data set [2] (setting [6]), > 1000 µg/mL in data set [3] (setting [7]), > 1000 µg/mL in data set [4] (setting [6]) and 1000 µg/mL (≈ 2730 µM) in data set [5] (setting [6]).
`CC1=C(C(=O)O)N2C(=O)C(NC(=O)Cn3ccccc3=O)C2SC1` (centres unmarked) [Compound 2, 7-[2-(2-oxo-1-pyridinyl)acetylamino]desacetoxycephalosporanic acid, sodium salt]: in data set [1], the “Acid Resistance” value was “Yes”. Further, the MIC in data set [2] (setting [6]) is 1000 µg/mL; in data set [3] (setting [7]), > 1000 µg/mL; in data set [4] (setting [6]), 1000 µg/mL; in data set [5] (setting [6]), > 1000 µg/mL.
For `CC1(C)S[C@@H]2C(NC(=O)Cn3cc([N+](=O)[O-])ccc3=O)C(=O)N2[C@H]1C(=O)O` (some centres unmarked) [Compound 6, 6-[2-(5-nitro-2-oxo-1-pyridinyl)acetylamino]penicillanic acid], the “Acid Resistance” value in data set [1] is listed as “Yes”. Moreover, the MIC in data set [2] (setting [6]) was 10 µg/mL (≈ 25.2 µM); in data set [3] (setting [7]), > 1000 µg/mL; in data set [4] (setting [6]), > 1000 µg/mL; in data set [5] (setting [6]), 1000 µg/mL (≈ 2520 µM).
On to `CC(C(=O)NC1C(=O)N2[C@@H]1SC(C)(C)[C@@H]2C(=O)O)n1ccccc1=O` (some centres unmarked) [Compound 4, 6-[2-(2-oxo-1-pyridinyl)-2-methylacetylamino]penicillanic acid], for which the “Acid Resistance” value in data set [1] is reported as “Weak”. Further, the MIC in data set [2] (setting [6]), in data set [3] (setting [7]), in data set [4] (setting [6]) and in data set [5] (setting [6]) was 1000 µg/mL (≈ 2740 µM) each time.
On to `COc1cccn(CC(=O)NC2C(=O)N3[C@@H]2SC(C)(C)[C@@H]3C(=O)O)c1=O` (some centres unmarked) [Compound 8, 6-[2-(3-methoxy-2-oxo-1-pyridinyl)acetylamino]penicillanic acid], for which the “Acid Resistance” value in data set [1] is recorded as “Yes”. Also, the MIC in data set [2] (setting [6]) came out at 10 µg/mL (≈ 26.2 µM); in data set [3] (setting [7]), 1000 µg/mL (≈ 2620 µM); in data set [5] (setting [6]) it was 1000 µg/mL (≈ 2620 µM).
`CC1(C)S[C@@H]2C(NC(=O)Cn3ccccc3=O)C(=O)N2[C@H]1C(=O)[O-].[Na+]` (some centres unmarked) [Compound 1, 6-[2-(2-oxo-1-pyridinyl)acetylamino]penicillanic acid, sodium salt]: the “Acid Resistance” value in data set [1] is on record as “Yes”. Further, the MIC in data set [2] is 10 µg/mL; in data set [3], 1000 µg/mL; in data set [4], 10 µg/mL; in data set [5] it was 1000 µg/mL.
As to `Cc1cccc(=O)n1CC(=O)NC1C(=O)N2C1SC(C)(C)C2C(=O)O` (centres unmarked) [Compound 3, 6-[2-(6-methyl-2-oxo-1-pyridinyl)acetylamino]pencillanic acid], the “Acid Resistance” value in data set [1] is recorded as “Yes”. The MIC in data set [2] (setting [6]) was 10 µg/mL (≈ 27.4 µM); in data set [3] (setting [7]) it was 1000 µg/mL (≈ 2740 µM); in data set [4] (setting [6]) it was 1000 µg/mL (≈ 2740 µM); in data set [5] (setting [6]), 1000 µg/mL (≈ 2740 µM).
